The supplement of paper PMC10307832

Key:
Assay in all cases: relative viability (nuclei count vs DMSO), 5 days (fraction); higher = more cells survive
[1] = compound: C1=CC=C(C(=C1)C2=CC=C(C=C2)C3=CSC4=C3C(=C(C(=O)N4)C#N)O)O + C[C@]1(O)C[C@@H](c2nc(-c3ccc4ccc(-c5ccccc5)nc4c3)c3c(N)nccn32)C1 [Linsitinib] (partner 1 µM)
Method in brief: (§1)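 Cells from lung cancer lines were seeded into 1536-well plates and, one day later, dosed by pin tool. Treatments were either a single drug or a fixed dose of an anchor drug with five library-drug doses (not always all listed) in √10 steps. After 5 days, nuclei were stained in a one-step fixation (final 0.05% Triton X-100, 1% formaldehyde, 1 ug/ml Hoechst) and counted on 4× images, and relative viability is the treated-to-vehicle nuclei ratio, as the median of duplicate plates.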

[2] = compound: O=C(CCCCCCNC(=O)c1cnc(N(c2ccccc2)c2ccccc2)nc1)NO [Ricolinostat] + CC(C)C[C@H](NC(=O)[C@H](Cc1ccccc1)NC(=O)c1cnccn1)B(O)O [Bortezomib] (partner 0.002 µM)
Method in brief: as §1

[3] = compound: C1=CC=C(C(=C1)C2=CC=C(C=C2)C3=CSC4=C3C(=C(C(=O)N4)C#N)O)O + Nc1ncn([C@H]2C[C@H](O)[C@@H](CO)O2)c(=O)n1 [Decitabine] (partner 2 µM)
Method in brief: as §1

Ricolinostat + Lapatinib = compound: O=C(CCCCCCNC(=O)c1cnc(N(c2ccccc2)c2ccccc2)nc1)NO [Ricolinostat] + CS(=O)(=O)CCNCc1ccc(-c2ccc3ncnc(Nc4ccc(OCc5cccc(F)c5)c(Cl)c4)c3c2)o1 [Lapatinib] (partner 2 µM)
Method in brief: as §1

Cell Line	relative viability ([1]; first compound 0.08 µM)	relative viability ([1]; first compound 0.253 µM)	relative viability ([1]; first compound 0.8 µM)	relative viability ([1]; first compound 2.53 µM)	relative viability ([1]; first compound 8 µM)	relative viability ([2]; first compound 0.08 µM)	relative viability ([2]; first compound 0.253 µM)	relative viability ([2]; first compound 0.8 µM)	relative viability ([2]; first compound 2.53 µM)	relative viability ([3]; first compound 0.08 µM)	relative viability ([3]; first compound 0.253 µM)	relative viability ([3]; first compound 0.8 µM)	relative viability ([3]; first compound 2.53 µM)	relative viability ([3]; first compound 8 µM)	relative viability (Ricolinostat + Lapatinib; first compound 0.08 µM)	relative viability (Ricolinostat + Lapatinib; first compound 0.253 µM)	relative viability (Ricolinostat + Lapatinib; first compound 0.8 µM)	relative viability (Ricolinostat + Lapatinib; first compound 2.53 µM)
A-427	1.09	1.12	1.11	1.15	1.18	0.89	0.998	0.933	0.736	0.517	0.595	0.567	0.563	0.656	0.892	1.01	0.897	1.02
ABC-1	0.926	0.906	0.856	0.875	0.735	0.311	0.302	0.25	0.264	1.4	1.03	1.03	0.899	1.07	1.27	1.12	1.3	1.65
EMC-BAC-2	0.759	0.853	0.837	0.811	0.77	0.957	1.12	1.06	0.941	0.893	–	0.979	0.967	0.933	0.784	0.895	0.894	0.676
NCI-H2405	0.972	1.05	0.956	0.831	0.848	0.816	0.952	0.932	0.992	0.798	–	0.774	0.66	0.725	0.858	1.04	1.08	1.04
NCI-H1993	0.617	0.882	0.713	0.709	0.802	0.861	1	1.25	1.15	0.633	0.672	0.622	0.62	0.572	0.714	0.867	0.796	0.91
LU99A	0.556	0.582	0.614	0.645	0.468	1.02	0.952	0.976	0.745	0.894	0.523	0.961	0.777	1.02	0.833	0.853	0.846	0.541
NCI-H1355	0.981	0.746	0.824	0.758	0.625	–	1.23	1.17	1.06	0.362	0.391	0.351	0.333	0.366	–	1.01	1	0.863
NCI-H838	0.738	1.22	1.08	0.988	1.04	0.767	0.973	0.943	0.756	0.456	0.5	0.483	0.457	0.417	0.683	1.08	0.955	0.873
NCI-H460	–	0.81	0.682	1.06	0.657	0.895	1.01	1.11	1	0.387	0.437	0.531	0.5	0.398	0.844	0.91	1.02	0.764
HCC-78	0.534	0.73	0.551	0.484	0.462	–	0.475	0.455	0.686	0.75	0.82	0.655	0.808	0.642	–	0.803	0.699	0.385
H3255	0.912	1.06	0.854	0.967	0.78	0.516	0.727	0.678	0.617	0.481	0.618	–	0.644	0.585	0.189	0.3	0.2	0.207
NCI-H2023	0.671	0.713	0.591	0.605	0.592	0.822	1.09	0.88	0.839	0.242	0.247	0.197	0.222	0.196	0.552	0.91	0.792	0.487
LOU-NH91	0.903	1.06	0.878	0.911	0.89	–	0.502	0.497	0.446	0.854	0.865	0.824	0.781	0.782	–	0.872	0.778	0.78
NCI-H2347	0.993	1.13	0.961	0.99	0.844	–	1.1	0.979	0.713	0.629	0.605	0.578	0.675	0.566	0.849	0.908	0.874	0.82
RERF-LC-KJ	0.93	1.03	0.877	0.911	0.831	1.15	1	1.11	1.02	0.762	0.756	0.609	0.819	0.681	0.828	0.864	0.858	0.808
HCC-44	0.587	0.84	0.66	0.715	0.58	0.904	0.887	0.904	0.663	1.01	1.05	0.985	0.895	0.934	1.04	0.976	0.922	0.713
NCI-H650	0.857	0.817	0.737	0.914	0.716	–	0.788	0.544	0.23	0.297	0.333	0.307	0.312	0.315	–	0.888	0.734	0.504

Cell Line	relative viability ([1]; first compound 0.08 µM)	relative viability ([1]; first compound 0.253 µM)	relative viability ([1]; first compound 0.8 µM)	relative viability ([1]; first compound 2.53 µM)	relative viability ([1]; first compound 8 µM)	relative viability ([2]; first compound 0.08 µM)	relative viability ([2]; first compound 0.253 µM)	relative viability ([2]; first compound 0.8 µM)	relative viability ([2]; first compound 2.53 µM)	relative viability ([3]; first compound 0.08 µM)	relative viability ([3]; first compound 0.253 µM)	relative viability ([3]; first compound 0.8 µM)	relative viability ([3]; first compound 2.53 µM)	relative viability ([3]; first compound 8 µM)	relative viability (Ricolinostat + Lapatinib; first compound 0.08 µM)	relative viability (Ricolinostat + Lapatinib; first compound 0.253 µM)	relative viability (Ricolinostat + Lapatinib; first compound 0.8 µM)	relative viability (Ricolinostat + Lapatinib; first compound 2.53 µM)
COR-L 105	0.964	0.781	0.924	0.957	0.953	0.844	0.885	0.946	0.993	0.715	0.684	0.793	0.664	0.564	0.342	0.396	0.399	0.384
COR-L23	0.703	0.816	1.02	0.99	0.747	0.919	0.894	0.951	0.464	0.469	0.54	0.429	0.431	0.417	1.05	0.835	0.8	0.588
LXF-289	0.978	0.961	0.986	1	0.973	0.951	0.931	0.993	0.874	0.428	0.393	0.393	0.364	0.365	0.847	0.907	0.897	0.731
PC-14	0.93	1.12	0.978	1.09	0.745	0.812	0.844	0.872	0.692	0.222	0.242	0.24	0.225	0.195	0.243	0.291	0.263	0.172
EKVX	0.751	1.28	0.883	1.1	0.779	–	1.03	1.16	0.83	0.396	0.412	0.857	0.695	0.326	–	0.205	0.205	0.19
NCI-H322M	1.07	0.587	0.874	0.909	0.787	–	1.14	1.29	1.22	0.679	0.667	0.747	0.69	0.731	–	0.494	0.624	0.66
NCI-H520	0.712	1.08	1.26	1.21	0.829	–	0.609	0.414	0.103	0.476	0.476	0.559	0.509	0.462	–	0.745	0.851	0.786
LC-2-ad	0.894	0.889	0.805	0.876	0.751	0.992	0.984	0.966	0.787	0.743	0.865	0.832	0.777	0.791	0.883	0.943	0.98	0.678
NCI-H596	0.967	1.17	1.13	1.1	0.733	0.896	1.09	1.13	–	1.02	1.79	1.09	0.898	0.891	0.985	1.08	1	0.743
LCLC-97TM1	0.197	0.203	0.222	0.198	0.164	–	0.59	0.212	0.163	0.237	0.267	0.226	0.252	0.226	0.658	1.09	0.87	1.15
NCI-H1437	0.668	1.37	1.03	1.21	0.81	0.561	0.513	0.479	0.256	0.515	0.674	0.57	0.596	0.466	0.705	0.767	0.714	0.642
NCI-H1915	1.2	1.15	1.08	1.19	1.01	0.932	1.01	0.903	0.98	0.263	0.269	0.251	0.252	0.262	0.965	0.958	0.858	0.965
SW 1573	0.812	0.875	0.951	0.834	0.721	0.834	1.13	1.06	1.13	0.447	0.536	0.552	0.468	0.425	0.941	1.23	1.12	1
NCI-H661	0.589	0.607	0.561	0.487	0.471	–	0.743	0.997	1.19	0.532	0.559	0.538	0.558	0.436	–	0.544	0.542	0.72
PC-3 [JPC-3]	1.1	1.06	0.989	0.952	1.09	0.832	0.791	0.791	0.829	0.806	0.879	0.844	0.956	0.805	0.351	0.466	0.414	0.475
201T	1.09	1.06	1.03	1.02	1.1	0.989	1.11	1.09	1.12	0.844	0.826	0.875	0.894	0.916	0.921	1.01	0.95	1.07
NCI-H727	0.242	0.238	0.284	0.237	0.237	0.554	1.1	0.811	0.911	0.815	0.932	0.79	0.843	0.81	0.523	1.02	0.862	0.77
